From patent publication US4634783A, “Novel amidine compound” (Torii & Co. Ltd., priority 1983, dated 1987)
Read-outs that look alike come from different tables or passages of the source.

How the values were obtained:
[1] = test system: complement mediated hemolysis; assay: inhibition of complement mediated hemolysis; format: cell-based
Method: The complement mediated hemolysis is widely used as a means to determine the titration of complement. The principle of this method is based on the fact that hemolysis is caused by the activation of complement, when the latter is added to a complex (immune complex) of erythrocytes and the antibody thereof. The degree of hemolysis varies in proportion to the amount of complement added. Therefore, when a known amount of complement admixed with a C1 esterase inhibitor is used, the hemolysis must be suppressed in proportion to the inhibitory activity.
(§1) The anti-C1 esterase (C1r, C1s) activity was determined according to the method of Okamura et al. [K. Okamura, M. Muramatsu and B. Fujii, Biochem. Biophys. Acta, 295, 252-257 (1973)]. The inhibition of complement mediated hemolysis was determined according to the method of Baker et al. [B. R. Baker and E. H. Erickson, J. Med. Chem., 12, 408-414 (1969)]. The figures in Table 2 have the following meanings:
Inhibition of complement mediated hemolysis (%): The inhibitory activity is shown in terms of percent inhibition of the compound at varied concentrations: […]

[2] = molecular target: Plasmin (Homo sapiens, UniProt P00747); assay: anti-plasmin activity (hydrolysis of TAME); format: biochemical; details: for IC50: TAME hydrolysis, read-out: ID50 Plasmin; for inhibition at 10 µM: at 1×10^-5 M, figure in parentheses, read-out: percentage inhibition Plasmin
Method: (§2) The anti-trypsin, anti-plasmin, anti-kallikrein and anti-thrombin activities were determined according to the method of Muramatsu et al. [M. Muramatsu, T. Onishi, S. Makino, Y. Hayashi and S. Fujii, J. of Biochem., 58, 214 (1965)]. […] The compound No. corresponds to the compound number shown in Examples.

[3] = molecular target: T1, Trypsin (Bos taurus, UniProt P00760); assay: anti-trypsin activity (hydrolysis of TAME); format: biochemical; details: read-out: ID50 Trypsin
T1 sequence (P00760 24-246): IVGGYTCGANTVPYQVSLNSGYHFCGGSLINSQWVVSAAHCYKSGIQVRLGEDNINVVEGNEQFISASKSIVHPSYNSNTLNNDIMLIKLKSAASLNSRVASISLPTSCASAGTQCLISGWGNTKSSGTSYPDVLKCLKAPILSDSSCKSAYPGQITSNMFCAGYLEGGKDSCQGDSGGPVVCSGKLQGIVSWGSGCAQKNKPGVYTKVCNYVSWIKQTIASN
Method: as §2

[4] = molecular target: Thrombin (Homo sapiens, UniProt P00734); assay: biochemical; details: for IC50: read-out: ID50 Thrombin; for inhibition at 10 µM: at 1×10^-5 M, figure in parentheses, read-out: percentage inhibition Thrombin
[5] = test system: Kallikrein; assay: anti-kallikrein activity (hydrolysis of TAME); format: biochemical; details: for IC50: TAME hydrolysis, read-out: ID50 Kallikrein; for percentage inhibition Kallikrein: at 1×10^-5 M, figure in parentheses
Method: as §2

[6] = molecular target: T2, C1s (Homo sapiens, UniProt P09871); assay: anti-C1 esterase (C1s) activity (hydrolysis of ATEE); format: biochemical; details: for IC50: ATEE hydrolysis, read-out: ID50 C1s; for inhibition at 10 µM: at 1×10^-5 M, figure in parentheses, read-out: percent inhibition C1s
T2 sequence (P09871 438-688 limits assumed): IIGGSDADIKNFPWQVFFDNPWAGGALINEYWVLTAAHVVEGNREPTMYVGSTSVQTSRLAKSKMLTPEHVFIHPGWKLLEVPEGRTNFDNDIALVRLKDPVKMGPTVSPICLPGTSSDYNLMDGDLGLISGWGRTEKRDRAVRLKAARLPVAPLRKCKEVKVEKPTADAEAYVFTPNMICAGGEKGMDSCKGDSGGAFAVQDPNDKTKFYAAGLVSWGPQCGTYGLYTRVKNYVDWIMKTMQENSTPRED
T2 sequence (P09871 16-437 limits assumed): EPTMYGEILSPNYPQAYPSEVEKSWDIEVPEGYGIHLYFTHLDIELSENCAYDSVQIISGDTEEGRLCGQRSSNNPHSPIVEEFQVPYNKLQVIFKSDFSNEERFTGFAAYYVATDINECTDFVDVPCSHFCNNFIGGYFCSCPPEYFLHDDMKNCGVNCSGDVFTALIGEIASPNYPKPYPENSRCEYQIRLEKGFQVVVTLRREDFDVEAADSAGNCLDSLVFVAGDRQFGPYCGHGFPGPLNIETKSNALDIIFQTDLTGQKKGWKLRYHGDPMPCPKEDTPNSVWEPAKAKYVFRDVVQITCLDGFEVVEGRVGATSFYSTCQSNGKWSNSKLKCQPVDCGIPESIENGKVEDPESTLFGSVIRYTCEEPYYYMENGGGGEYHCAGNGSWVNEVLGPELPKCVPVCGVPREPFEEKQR
Method: as §1
C1s: Molar concentration of the test compound which inhibits 50% of the ability of C1s to hydrolyse ATEE (acetyltyrosin ethyl ester) (ID50).

[7] = molecular target: T3, C1r (Homo sapiens, UniProt P00736); assay: anti-C1 esterase (C1r) activity (hydrolysis of AAME); format: biochemical; details: for IC50: AAME hydrolysis, read-out: ID50 C1r; for inhibition at 10 µM: at 1×10^-5 M, figure in parentheses, read-out: percent inhibition C1r
T3 sequence (P00736 464-705 limits assumed): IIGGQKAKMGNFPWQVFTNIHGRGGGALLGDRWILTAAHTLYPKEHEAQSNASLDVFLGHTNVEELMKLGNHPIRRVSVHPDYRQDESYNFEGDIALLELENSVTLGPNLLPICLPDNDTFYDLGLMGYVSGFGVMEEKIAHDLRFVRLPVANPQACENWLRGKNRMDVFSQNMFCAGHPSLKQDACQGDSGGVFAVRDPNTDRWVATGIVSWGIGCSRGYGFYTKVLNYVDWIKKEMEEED
T3 sequence (P00736 18-463 limits assumed): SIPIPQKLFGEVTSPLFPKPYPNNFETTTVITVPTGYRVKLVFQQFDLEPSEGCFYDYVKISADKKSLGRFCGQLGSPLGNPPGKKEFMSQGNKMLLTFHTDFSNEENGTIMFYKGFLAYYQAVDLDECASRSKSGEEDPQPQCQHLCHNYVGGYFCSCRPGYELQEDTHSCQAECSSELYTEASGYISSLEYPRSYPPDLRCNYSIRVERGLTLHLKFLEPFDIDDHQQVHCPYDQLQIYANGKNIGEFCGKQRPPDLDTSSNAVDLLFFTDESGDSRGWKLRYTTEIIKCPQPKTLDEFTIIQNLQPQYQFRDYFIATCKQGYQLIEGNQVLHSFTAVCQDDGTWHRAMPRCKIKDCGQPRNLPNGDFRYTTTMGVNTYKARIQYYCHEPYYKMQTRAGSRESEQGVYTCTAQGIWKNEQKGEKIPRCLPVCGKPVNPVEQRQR
Method: as §1
C1r: Molar concentration of the test compound which inhibits 50% of the ability of C1r to hydrolyse AAME (acetylarginin methyl ester) (ID50).

Sequence of Plasmin (P00747 581-810 limits assumed, species assumed): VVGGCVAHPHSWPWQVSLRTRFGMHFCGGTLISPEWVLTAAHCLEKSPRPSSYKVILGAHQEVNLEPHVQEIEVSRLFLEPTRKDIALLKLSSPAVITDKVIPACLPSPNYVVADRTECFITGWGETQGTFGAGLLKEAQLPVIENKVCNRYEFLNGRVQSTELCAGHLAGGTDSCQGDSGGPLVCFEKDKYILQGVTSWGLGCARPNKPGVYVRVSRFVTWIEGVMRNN
Sequence of Plasmin (P00747 97-580 limits assumed, species assumed): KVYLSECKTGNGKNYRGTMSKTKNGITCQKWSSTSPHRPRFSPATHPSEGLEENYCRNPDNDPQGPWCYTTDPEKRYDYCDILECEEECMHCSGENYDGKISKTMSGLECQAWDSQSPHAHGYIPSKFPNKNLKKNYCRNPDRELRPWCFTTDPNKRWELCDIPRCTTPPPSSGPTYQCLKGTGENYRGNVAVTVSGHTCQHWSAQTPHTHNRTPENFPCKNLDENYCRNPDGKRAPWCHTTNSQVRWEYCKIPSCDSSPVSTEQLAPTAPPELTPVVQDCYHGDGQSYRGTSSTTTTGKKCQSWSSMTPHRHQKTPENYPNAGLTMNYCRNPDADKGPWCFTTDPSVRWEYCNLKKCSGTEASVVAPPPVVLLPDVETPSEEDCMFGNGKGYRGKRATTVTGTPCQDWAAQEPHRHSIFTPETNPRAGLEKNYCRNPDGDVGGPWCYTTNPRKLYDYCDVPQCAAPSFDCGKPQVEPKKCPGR

Row | Compound | IC50 [2] | IC50 [3] | IC50 ([4]; TAME hydrolysis) | IC50 [5] | IC50 [6] | inhibition at 10 µM [4] | IC50 [7] | inhibition at 10 µM [6] | inhibition at 10 µM [2] | inhibition at 10 µM [7] | IC50 [4] | Inhibition of complement mediated hemolysis ([1]; 1 × 10^-4) | Inhibition of complement mediated hemolysis ([1]; 1 × 10^-5) | Inhibition of complement mediated hemolysis ([1]; 1 × 10^-6) | Inhibition of complement mediated hemolysis ([1]; 1 × 10^-7) | percentage inhibition Kallikrein [5]
1 | N=C(N)c1ccc2cc(OC(=O)c3cc4ccccc4o3)ccc2c1 [compound 16] | 3000 nM | 2000 nM | 7000 nM |  |  |  | 4000 nM | < 10% |  |  |  | 100% | 99% | 99% | 98% | NE (the percentage inhibition is less than 10%)
2 | N=C(N)c1ccc2cc(OC(=O)c3ccc[nH]3)ccc2c1 [compound 28] |  | 6000 nM |  |  | 300 nM | < 10% |  |  | < 10% | 31% |  | 88% | 55% | 28% | NE (the percentage inhibition is less than 10%) | NE (the percentage inhibition is less than 10%)
3 | N=C(N)c1ccc2cc(OC(=O)C=Cc3c[nH]c4ccccc34)ccc2c1 [compound 38] | 800 nM | 9000 nM |  |  | 600 nM | 11% |  |  |  | 42% |  |  |  |  |  | 17%
4 | N=C(N)c1ccc2cc(OC(=O)c3ccoc3)ccc2c1 [compound 4] | 1000 nM | 2000 nM | 700 nM |  | 300 nM |  | 600 nM |  |  |  |  | 100% | 65% | 30% | NE (the percentage inhibition is less than 10%) | 43%
5 | N=C(N)c1ccc2cc(OC(=O)C=Cc3cccnc3)ccc2c1 [compound 50] | 4000 nM | 6000 nM |  |  |  | 14% | 5000 nM | 18% |  |  |  |  |  |  |  | NE (the percentage inhibition is less than 10%)
6 | N=C(N)c1ccc2cc(OC(=O)C=Cc3ccco3)ccc2c1 [compound 14] | 300 nM | 1000 nM | 7000 nM | 5000 nM | 400 nM |  | 3000 nM |  |  |  |  | 98% | 94% | 72% | 20% | 
7 | N=C(N)c1ccc2cc(OC(=O)c3ccc4ccccc4n3)ccc2c1 [compound 52] |  |  |  |  |  |  |  | < 10% |  | 29% |  | 100% | 97% | 99% | 97% | 
8 | N=C(N)c1ccc2cc(OC(=O)C3CCNCC3)ccc2c1 [compound 64] |  |  |  |  | 7000 nM |  |  |  |  | 45% |  |  |  |  |  | 
9 | N=C(N)c1ccc2cc(OC(=O)c3ccc(Cn4ccnc4)cc3)ccc2c1 [compound 42] | 2000 nM | 2000 nM |  | 5000 nM |  | 13% |  |  |  |  |  |  |  |  |  | 
10 | CN1c2ccccc2Sc2ccc(CC(=O)Oc3ccc4cc(C(=N)N)ccc4c3)cc21 [compound 61] |  | 3000 nM |  |  |  |  | 2000 nM | 16% | 31% |  | 3000 nM |  |  |  |  | 17%

Continued by falling IC50 [3], values first:

Row | IC50 [2] | IC50 [3] | IC50 ([4]; TAME hydrolysis) | IC50 [5] | IC50 [6] | inhibition at 10 µM [4] | IC50 [7] | inhibition at 10 µM [6] | inhibition at 10 µM [2] | inhibition at 10 µM [7] | IC50 [4] | Compound | Inhibition of complement mediated hemolysis ([1]; 1 × 10^-4) | Inhibition of complement mediated hemolysis ([1]; 1 × 10^-5) | Inhibition of complement mediated hemolysis ([1]; 1 × 10^-6) | Inhibition of complement mediated hemolysis ([1]; 1 × 10^-7) | percentage inhibition Kallikrein [5]
11 | 2000 nM | 400 nM | 600 nM | 4000 nM | 4000 nM |  |  |  |  |  |  | N=C(N)c1ccc2cc(OC(=O)c3ccc(CO)o3)ccc2c1 [compound 8] | 100% | 100% | 97% | 92% | 
12 | 1000 nM | 400 nM | 400 nM |  | 4000 nM |  | 500 nM |  |  |  |  | N=C(N)c1ccc2cc(OC(=O)c3ccco3)ccc2c1 [compound 3] | 100% | 100% | 100% | 100% | NE (the percentage inhibition is less than 10%)
13 | 2000 nM | 200 nM |  | 10000 nM | 2000 nM | 40% | 2000 nM |  |  |  |  | COc1ccc2[nH]c(C(=O)Oc3ccc4cc(C(=N)N)ccc4c3)cc2c1 [compound 33] |  |  |  |  | 
14 | 400 nM | 200 nM | 500 nM | 300 nM | 400 nM |  | 200 nM |  |  |  |  | N=C(N)Nc1ccc(CCc2ccc(C(=O)Oc3ccc4cc(C(=N)N)ccc4c3)o2)cc1 [compound 2, 6-amidino-2-naphthyl 5-(p-guanidinophenylethyl)-furan-2-carboxylate] | 100% | 100% | 97% | 89% | 
15 |  | 100 nM |  |  | 500 nM | 46% | 300 nM |  | 31% |  |  | N=C(N)c1ccc2cc(OC(=O)c3ccc4[nH]cnc4c3)ccc2c1 [compound 43] |  |  |  |  | 41%
16 | 3000 nM | 60 nM |  | 2000 nM | 400 nM | 41% | 3000 nM |  |  |  |  | N=C(N)c1ccc2cc(OC(=O)C3CCN(C(=O)OCc4ccccc4)CC3)ccc2c1 [compound 55] |  |  |  |  | 
17 | 100 nM | 1 nM | 90 nM | 10000 nM | 800 nM |  | 400 nM |  |  |  |  | COc1ccc2c(c1)c(CC(=O)Oc1ccc3cc(C(=N)N)ccc3c1)c(C)n2C(=O)c1ccc(Cl)cc1 [compound 35] |  |  |  |  | 
